How the values were obtained:
E-Selectin [1] = assay: HUVEC cell surface expression of E-Selectin by flow cytometry; type: cell-based, Human; details: 10 μM; for E-Selectin cell surface expression: unstimulated, FIG. 2
Method: (§1) A) Materials. Human Umbilical Vein Endothelial Cells (HUVEC) sent from LifeBank, were tested in Experiments A-K with several adhesion molecules. The adhesion molecules tested were CD51/CD61FITC (obtained from BD PharMingen, San Diego, Calif.; Catalog No. 555505), ICAM-1 PE also known as CD54 (obtained from BD PharMingen, San Diego, Calif.; Catalog No. 555511), ICAM-2 also known as CD102 (obtained from Research Diagnostics Inc., Concord, Mass.; Catalog No. RDI-CBL539FT), VCAM-1 (obtained from BD PharMingen, San Diego, Calif.; Catalog No. 555647), P-Selectin FITC (obtained from R&D Systems, Inc., Minneapolis, Minn.; Catalog No. BBA34), E-Selectin FITC (obtained from R&D Systems, Inc., Minneapolis, Minn.; Catalog No. BBA21), HLA Class I FITC (obtained from BD PharMingen, San Diego, Calif.; Catalog No. 555553), HLA Class II PE (obtained from BD PharMingen, San Diego, Calif.; Catalog No. 555558), CD44 FITC (obtained from BD PharMingen, San Diego, Calif.; Catalog No. 347943), CD144 (Cadherin VE) (obtained from CHEMICON International, Inc., Temecula, Calif.; Catalog No. MAB1989), IgG2a FITC (obtained from BD PharMingen, San Diego, Calif.; Cat #556652), Ms IgG2a (obtained from CHEMICON International, Inc., Temecula, Calif.; Cat. No. PP102), IgG1 FITC (obtained from BD PharMingen, San Diego, Calif.; Cat. No. 349041) and IgG1 PE (obtained from BD PharMingen, San Diego, Calif.; Cat. No. 349043).
(§2) Compound (1) ((+)-2-[1-(3-ethoxy-4-methoxyphenyl)-2-methylsulfonylethyl]-4-acetylaminoisoindoline-1,3-dione) and Compound (2) (4-(amino)-2-(2,6-dioxo(3-piperidyl))-isoindoline-1,3-dione) were obtained according to the preparation procedures disclosed herein. 16,16-Dimethyl-PGE2 (hereinafter PGE2) was obtained from BIOMOL International, L.P. (Plymouth Meeting, Pa.; Catalog No. PG-021). TNF-αwas obtained from Pierce Biotechnology (Rockford, Ill.; Catalog No. RTNFA 10).
(§3) B) Methods. HUVEC's were plated on 6-well plates at a concentration of 1×10^5 cells/well in 3 ml EBM® endothelial basal media (obtained from Cambrex Corporation, East Rutherford, N.J.; Catalog No. CC-3121) and singlequots (obtained from Cambrex Corporation, East Rutherford, N.J.; Catalog No. CC-4133). The cells were incubated overnight in a 37° C. and 5% CO2 humidified incubator to allow cells to attach. The old media was removed in next day and replaced with 3 ml fresh EBM® endothelial basal media. Then, samples of 3 μl of 10 mM of Compound (1), Compound (2), PGE2 and a mixture of Compound (1) and PGE2 were added separately to each well of the plates in duplicate to give a final concentration of 10 μM. An unstimulated DMSO control and a TNF-α-stimulated control were also added in duplicate. The plates were incubated in a 37° C. and 5% CO2 humidified incubator for 1 hr. […] The plates were incubated overnight in a 37° C. and 5% CO2 humidified incubator. The cells were also tested without TNF-α. The media was removed in the next day and each well was washed with 3 ml of phosphate buffered saline (PBS). Then, 3 ml of PBS containing 1 mM of EDTA (ethylenediaminetetraacetate) was added to each well to allow the cells to detach. Once the cells detached, they were gently scraped and placed in 4.5 ml Falcon tubes. The tubes were then centrifuged at 1200 RPM for 8 minutes at 4° C. The supernatant was carefully removed. Next, 50 μl of PBS-FACS buffer (5% fetal bovine serum (FBS), 0.02% sodium azide in PBS) and 20 μl of antibodies were added to all tubes as follows:
(§4) After the antibodies were added, the tubes were incubated on ice for 30 minutes and covered with foil. Then, the tubes were centrifuged at 1200 RPM for 8 minutes at 4° C. The supernatant was carefully removed. The cells were re-suspended in 2 ml of PBS-FACS buffer and centrifuged again as above. The supernatant was carefully removed again and the cells were re-suspended in 500 μl of PBS-FACS buffer. The tubes were then analyzed using a flow cytometer. […]

P-Selectin = assay: HUVEC cell surface expression of P-Selectin by flow cytometry; type: cell-based, Human; details: 10 μM; for increase of TNF-α-induced cell expression of P-Selectin above baseline: TNF-α (1 ng/ml) stimulated, FIG. 3; for inhibition of P-Selectin expression: unstimulated, FIG. 2
Method: as §1, §2, §3, §4

VE-Cadherin = assay: HUVEC cell surface expression of VE-Cadherin (CD144) by flow cytometry; type: cell-based, Human; details: 10 μM, FIG. 4
Method: as §1, §2
(§5) B) Methods. […]

TNF-α = assay: Ultraviolet B-induced TNF-alpha production by human keratinocytes (HEKn cells), TNF-α ELISA; type: cell-based
Method: Cutaneous lupus patients often experience disease exacerbation when exposed to ultraviolet (UV) light. This is thought to be due to UVB-induced TNF-α production by keratinocytes. […] In vitro study for cutaneous lupus was performed to investigate how the compounds of the invention affect TNF-α production in keratinocytes.
Human neonatal foreskin epidermal keratinocytes (HEKn cells) were obtained from Cascade Biologics and were grown in serum-free medium supplemented with growth factors. When cells reached 80% confluency, they were trypsinized and plated at 1×10^5 cells/well in 6 well dishes. Plates were incubated for 24 hours to allow cell adhesion. To optimize conditions for the release of TNF-α, cells were treated with various degrees of exposure to UVB radiation (1, 4 and 24 hours). Supernatants were then collected and tested in the TNF-α ELISA.
Supernatants were collected and tested in the TNF-α ELISA at 1 Hour (bars with no pattern), 4 Hours (lined bars), or 24 Hours (checkered bars) after exposure. Results are the average of two experiments. The results shown in FIG. 7 indicate that supernatants collected 24 hours after HEKn cells were exposed to UVB had the highest levels of TNF-α. After exposure to 10, 50, or 100 mJ/cm^2, cells remained attached to the wells and no cell damage was observed. The 300 mJ/cm^2 UVB exposure was too high for the HEKn cells and many cells were damaged and detached from the bottom of the wells.
Cells were treated for 4 hours with (+)-2-[1-(3-ethoxy-4-methoxyphenyl)-2-methylsulfonylethyl]-4-acetylaminoisoindoline-1,3-dione (compound named 10004), or cyclopropyl {2-[(1S)-1-(3-ethoxy-4-methoxyphenyl)-2-(methylsulfonyl)ethyl]-3-oxoisoindolin-4-yl}carboxamide (compound named 11050) at 0.1 μM, 1 μM, or 10 μM. Medium was aspirated the cells washed and then exposed to 50 mJ/cm^2 UVB radiation. Fresh medium was added and the cells were incubated for 24 hours. Supernatents were removed and tested in the TNF-α ELISA kit from Pierce Biotechnology. […] (FIG. 8). […] (FIG. 8).
In other experiments, cells were treated for 4 hours with 3-(4-amino-1-oxo-1,3-dihydro-isoindol-2-yl)-piperidine-2,6-dione (compound named 5013), (+)-2-[1-(3-ethoxy-4-methoxyphenyl)-2-methylsulfonylethyl]-4-acetylaminoisoindoline-1,3-dione (compound named 10004) or compound named 16057, at 0.1 μM or 1 μM. […] (FIG. 9). […] (FIG. 9).

VCAM = assay: HUVEC cell surface expression of VCAM by flow cytometry; type: cell-based, Human; details: TNF-α stimulated, 10 μM, FIG. 5
Method: (§6) A) Materials. Human Umbilical Vein Endothelial Cells (HUVEC) sent from LifeBank, were tested in Experiments A-K with several adhesion molecules. […]

CD44 = assay: HUVEC cell surface expression of CD44 by flow cytometry; type: cell-based, Human; details: 10 μM, FIG. 4
Method: as §1, §2, §5

ICAM-1 = assay: HUVEC cell surface expression of ICAM-1 by flow cytometry; type: cell-based, Human; details: TNF-α stimulated, 10 μM, FIG. 5
Method: as §6

CD51/61 = assay: HUVEC cell surface expression of CD51/61 by flow cytometry; type: cell-based, Human; details: unstimulated, 10 μM, FIG. 1
Method: as §1, §2, §5

E-Selectin [2] = assay: E-Selectin cell surface expression in HUVEC detected by ELISA; type: cell-based, Human; details: HUVEC, 0.25, 0.5 and 1 ng/ml of TNF-α, 10 μM, FIG. 6
Description: In this assay, the mixture of Compound (1) and PGE2 appeared to work synergistically.

[3] = TNF-α (1 ng/ml) stimulated, FIG. 3
[4] = HEKn cells treated 4 hours at 0.1 μM, 1 μM, or 10 μM, 50 mJ/cm^2 UVB, 24 hours, FIG. 8

In the case of `CCOc1cc(C(CS(C)(=O)=O)N2C(=O)c3cccc(NC(C)=O)c3C2=O)ccc1OC` (single isomer, unassigned; (+)) [Compound (1), (+)-2-[1-(3-ethoxy-4-methoxyphenyl)-2-methylsulfonylethyl]-4-acetylaminoisoindoline-1,3-dione], the “TNF-α-stimulated cell surface expression of E-Selectin” value (E-Selectin [1]; [3]) is reported as “unaffected”, the “E-Selectin cell surface expression” value (E-Selectin [1]) is reported as “inhibited” and the “increase of TNF-α-induced cell expression of P-Selectin above baseline” value (P-Selectin) is reported as 40%. The “increase of P-Selectin cell surface expression” value (P-Selectin; TNF-α stimulated, FIG. 5) was “approximately 35%”, the “inhibition of P-Selectin expression” value (P-Selectin) was “approximately 55%” and the “TNF-α-stimulated cell surface expression of VE-Cadherin” value (VE-Cadherin) was “unaffected”. For the same molecule, the “levels of TNF-α released after UVB exposure” value (“levels of TNF-α released” below) (TNF-α; HEKn cells treated 4 hours at 0.1 μM or 1 μM, UVB, FIG. 9) was “dose dependent decrease”, the “levels of TNF-α released” value (TNF-α; [4]) was “dose dependent decrease” and the “TNF-α levels after UVB exposure with the 10 μM treatment” value (TNF-α; HEKn cells treated 4 hours at 10 μM, 50 mJ/cm^2 UVB, 24 hours, FIG. 8) was “TNF-α levels similar to cells not treated with radiation”. For the same molecule, the “decrease of VCAM expression” value (VCAM) was 30%, the “inhibition of TNF-α-stimulated cell surface expression of CD44” value (CD44) was “approximately 30%” and the “increase of ICAM-1 cell surface expression” value (ICAM-1) was “approximately 35%”. The “CD51/61 cell surface expression compared to untreated conditions” value (CD51/61) was “unaffected”.

With `Nc1cccc2c1CN(C1CCC(=O)NC1=O)C2=O` (stereo not drawn) [Compound 5013, 3-(4-amino-1-oxo-1,3-dihydro-isoindol-2-yl)-piperidine-2,6-dione] the “TNF-α levels after UVB exposure with the 0.1 μM treatment” value (TNF-α; HEKn cells treated 4 hours at 0.1 μM, UVB, FIG. 9) was “TNF-α levels lower than cells not treated with radiation”.

`CCOc1cc([C@@H](CS(C)(=O)=O)N2Cc3cccc(NC(=O)C4CC4)c3C2=O)ccc1OC` [Compound 11050, cyclopropyl {2-[(1S)-1-(3-ethoxy-4-methoxyphenyl)-2-(methylsulfonyl)ethyl]-3-oxoisoindolin-4-yl}carboxamide] was tested, and the “levels of TNF-α released” value (TNF-α; [4]) was “dose dependent decrease”.

In the case of `Nc1cccc2c1C(=O)N(C1CCC(=O)NC1=O)C2=O` (stereo not drawn) [Compound (2), 4-(amino)-2-(2,6-dioxo(3-piperidyl))-isoindoline-1,3-dione], the “inhibition of TNF-α-induced E-Selectin expression” value (E-Selectin [1]; [3]) is reported as “approximately 20%”, the “E-Selectin cell surface expression” value (E-Selectin [1]) is reported as “inhibited” and the “TNF-α-stimulated E-Selectin cell surface expression (ELISA)” value (E-Selectin [2]) is reported as “inhibitory effect”. The “increase of TNF-α-induced cell expression of P-Selectin above baseline” value (P-Selectin) was over 2 fold, the “increase of P-Selectin expression” value (P-Selectin; TNF-α stimulated, FIG. 5) was about 2 fold and the “inhibition of P-Selectin expression” value (P-Selectin) was about 35%. For the same molecule, the “TNF-α-stimulated cell surface expression of VE-Cadherin” value (VE-Cadherin) was “unaffected”, the “inhibition of TNF-α-stimulated cell surface expression of CD44” value (CD44) was “approximately 30%” and the “CD51/61 cell surface expression compared to untreated conditions” value (CD51/61) was “unaffected”.

With `CCCCC(C)(C)[C@H](O)/C=C/[C@H]1[C@H](O)CC(=O)[C@@H]1C/C=C\CCCC(=O)O` [PGE2, 16,16-Dimethyl-PGE2, reference compound] the “inhibition of TNF-α-induced E-Selectin expression” value (E-Selectin [1]; [3]) was 50%, the “cell surface expression of E-Selectin” value (E-Selectin [1]; TNF-α stimulated, FIG. 5) was “significantly decreased” and the “TNF-α-stimulated cell surface expression of VE-Cadherin” value (VE-Cadherin) was “unaffected”. The “cell surface expression of VCAM” value (VCAM) was “significantly decreased”, the “TNF-α-stimulated cell surface expression of CD44” value (CD44) was “no detectable effects” and the “reduction in the CD51/61 cell surface expression” value (CD51/61) was 20%.

Source: US20110104144A1, “METHODS FOR TREATING CUTANEOUS LUPUS USING AMINOISOINDOLINE COMPOUNDS” (CELGENE CORPORATION, priority 2005, published 2011)
